In PMC8765275, “Self-Inhibitory Peptides Targeting the Neisseria gonorrhoeae MtrCDE Efflux Pump Increase Antibiotic Susceptibility” (Antimicrobial Agents and Chemotherapy, 2022):
Where two headings read alike, the source gives them in different places.

Experiments:
[1] = system: N. gonorrhoeae strains FA1090, WHO K, WHO P, WHO X; assay: Antibiotic MIC with peptide cotreatment, summarised over the strains tested; type: cell-based, Neisseria gonorrhoeae; settings: for Reduction of the MICs of the four antibiotics tested on cotreatment: for at least one N. gonorrhoeae strain
Description: (§1) Six peptides were tested against N. gonorrhoeae strains with various antimicrobial resistance phenotypes and with either standard MtrCDE expression (strain FA1090) or MtrCDE overexpression (strains WHO K, WHO P, and WHO X [15, 16]) (Table 2). […] Subsequent experiments were conducted with subinhibitory peptide concentrations (20 μg/ml for FA1090; 50 μg/ml for WHO K, WHO P, and WHO X).
(§2) Experiments were performed using a microdilution method in triplicate wells.
(§3) High-level resistance, resistance, intermediate resistance, and susceptibility phenotypes were determined per previously determined MIC values ([15]) using the interpretive criteria published by the Swedish Reference Group on Antibiotics (SGRA) ([25]). For cotreatment assays (peptide plus antibiotic), the antibiotic dilutions were made up in GC broth that contained the peptide at the appropriate concentration. The experiments were performed with peptide-only and antibiotic-only controls. Each well was inoculated with 10 μl of the appropriate N. gonorrhoeae strain at an optical density (absorbance at 600 nm) of 0.1 (∼1 × 10^6 CFU/ml). All experiments were performed with triplicate samples on at least three occasions.

[2] = system: N. gonorrhoeae strain WHO P (MtrCDE overexpression); assay: microbe, parasite or virus in culture; type: cell-based, Neisseria gonorrhoeae; settings: for Reduction of azithromycin MIC compared with that for MtrCDE knockout versus wild-type strains: 50 μg/ml peptide, knockout comparison from ref 6; for Antimicrobial resistance phenotype, AZM, in the presence of peptide: cotreatment with 50 μg/ml peptide, EUCAST breakpoints; for MIC: Neisseria gonorrhoeae, 20 h
Description: as §1, §2, §3

[3] = system: N. gonorrhoeae strain WHO X (MtrCDE overexpression); assay: microbe, parasite or virus in culture; type: cell-based, Neisseria gonorrhoeae; settings: for MIC: Neisseria gonorrhoeae, 20 h
Description: as §1, §2, §3

[4] = system: N. gonorrhoeae strain WHO P ΔmtrE; assay: Antibiotic MIC with or without P-MtrE1, mtrE knockout strain; type: cell-based, Neisseria gonorrhoeae
Description: (§4) N. gonorrhoeae strains used in this study include FA1090 (standard MtrCDE expression) ([22]), WHO K (MtrCDE overexpression) ([15]), WHO P (MtrCDE overexpression) ([15]), and WHO X (MtrCDE overexpression) ([16]). Wild-type strains were grown on GC agar or in GC broth (Oxoid) supplemented with IsoVitaleX (Bacto) at 37°C in 5% CO2. mtrE knockout strains of N. gonorrhoeae WHO X and WHO P (ΔmtrE) were generated by transforming bacteria with 1 μg of a linear DNA fragment (IDT) containing aminoglycoside 3′-phosphotransferase gene (NCBI accession no. VTT49712.1) flanked by 500-bp terminal fragments of the N. gonorrhoeae FA1090 mtrE gene (GenBank accession no. AE004969.1, positions 1 to 500 and 903 to 1403), as well as the gonococcal DNA uptake sequence ([…]) at the 5′ end ([23]). E. coli strain DH5α, used for cloning, was grown using Luria-Bertani agar or broth (Oxoid) at 37°C. The media were supplemented with 100 μg/ml ampicillin or 50 μg/ml kanamycin, as required.
as §2, §3

[5] = system: N. gonorrhoeae strain WHO X ΔmtrE; assay: as above; type: cell-based, Neisseria gonorrhoeae
Description: as §4, §2, §3

[6] = system: N. gonorrhoeae strain WHO K (MtrCDE overexpression); assay: microbe, parasite or virus in culture; type: cell-based, Neisseria gonorrhoeae; settings: for MIC: Neisseria gonorrhoeae, 20 h
Description: as §1, §2
as §3, with “High-level resistance, resistance, intermediate resistance, and susceptibility phenotypes were determined per previously determined MIC values ([15]) using the interpretive criteria published by the Swedish Reference Group on Antibiotics (SGRA) ([25]).” left out

[7] = system: N. gonorrhoeae strain FA1090 (standard MtrCDE expression); assay: MIC, broth microdilution (CLSI), antibiotic alone, peptide alone or peptide cotreatment; type: cell-based; settings: Neisseria gonorrhoeae
Description: as §1, §2, §3

[8] = gentamicin is not subject to efflux by MtrCDE
[9] = presence or absence of subinhibitory P-MtrE1 concentrations (0 or 6.5 μg/ml, Fig. 2)
[10] = read-out: MIC of CRO (ceftriaxone)
[11] = WHO K, antibiotic alone, EUCAST breakpoints
[12] = read-out: MIC of ERY (erythromycin)
[13] = read-out: MIC of AZM (azithromycin)

**Q.** For “(KFF)3KGSG HLSLIATV [P-MtrE1, self-derived peptide, 8 amino acids of MtrE fused to (KFF)3K cell-permeating peptide and GSG linker]”, which “Reduction of the MICs of the four antibiotics tested on cotreatment” value (shortened to “Reduction of the MICs … on cotreatment”) [1] is on record?
**A.** The value was “at least 2 fold”.

**Q.** And the “Impact of peptide on susceptibility to gentamicin” value (from here on “Impact of peptide”) ([2]; WHO P wild-type, gentamicin is not subject to efflux by MtrCDE)?
**A.** The value was “no impact”.

**Q.** What about the “Reduction of azithromycin MIC compared with that for MtrCDE knockout versus wild-type strains” value ([2]; WHO P) of the same molecule?
**A.** The value was “same magnitude”.

**Q.** And the “Peptide concentration able to reduce the MICs of erythromycin and azithromycin” value ([2]; WHO P, concentrations as low as)?
**A.** Its value is at most 6.25 µg/mL.

**Q.** What about the “Antimicrobial resistance phenotype, AZM, in the presence of peptide” value ([2]; WHO P) of the same molecule?
**A.** The value was “S (S ≤ 0.25)”.

**Q.** And the “Impact of peptide” value ([3]; WHO X wild-type, gentamicin is not subject to efflux by MtrCDE)?
**A.** Its value is “no impact”.

**Q.** And the “Reduction of ciprofloxacin and ceftriaxone MICs compared with that between MtrCDE knockout and wild-type strains” value ([3]; WHO X, 50 μg/ml peptide, knockout comparison from ref 6)?
**A.** The value was “same magnitude”.

**Q.** And the “Peptide concentration able to reduce the MICs of ciprofloxacin and ceftriaxone” value ([3]; WHO X, concentrations as low as)?
**A.** The value was at most 6.25 µg/mL.

**Q.** And the “Impact of peptide” value [4, 8]?
**A.** The value was “no impact”.

**Q.** What about the “Change in antibiotic susceptibility to erythromycin or azithromycin with peptide” value [4, 9] of the same molecule?
**A.** The value was “no change”.

**Q.** And the “Impact of peptide” value [5, 8]?
**A.** The value was “no impact”.

**Q.** What about the “Change in antibiotic susceptibility to ciprofloxacin or ceftriaxone with peptide” value [5, 9] of the same molecule?
**A.** The value was “no change”.

**Q.** Which results are given for “(KFF)3KGSGVMKLRRQI [P-MtrC1, self-derived peptide, 8 amino acids of MtrC fused to (KFF)3K cell-permeating peptide and GSG linker]”?
**A.** Reduction of the MICs of the four antibiotics tested on cotreatment [1]: at least 2 fold; Reduction of azithromycin MIC compared with that for MtrCDE knockout versus wild-type strains ([2]; WHO P): same magnitude; Antimicrobial resistance phenotype, AZM, in the presence of peptide ([2]; WHO P): I

**Q.** Which MIC [6, 10] does the source give for `CO/N=C(\C(=O)N[C@@H]1C(=O)N2C(C(=O)O)=C(CSc3nc(=O)c(=O)[nH]n3C)CS[C@H]12)c1csc(N)n1` [CRO, ceftriaxone] here?
**A.** The MIC was 0.031 µg/mL.

**Q.** What about the “Antimicrobial resistance phenotype, CRO” value [6, 11] of the same molecule?
**A.** Its value is “S (S ≤ 0.125)”.

**Q.** And the MIC [2, 10]?
**A.** The MIC was 0.004 µg/mL.

**Q.** And the MIC [3, 10]?
**A.** The MIC was 2 µg/mL.

**Q.** And the MIC ([7]; read-out: MIC of CRO (ceftriaxone), antibiotic alone, microdilution per CLSI, GC broth, 20 h, triplicate wells)?
**A.** Its MIC is under 0.0078 µg/mL.

**Q.** How did the “Reduction of the MICs … on cotreatment” value [1] turn out when “(KFF)3KGSGVFLVPLFY [P-MtrD1, self-derived peptide, 8 amino acids of MtrD fused to (KFF)3K cell-permeating peptide and GSG linker]” was run?
**A.** Its value is “at least 2 fold”.

**Q.** Which “Effect of peptide on susceptibility to the antibiotics tested” value ([1]; control peptides, any strain against which P-MtrE1 had an effect) does the source give for HLSLIATV [P-MtrE1a] here?
**A.** Its value is “not able to increase susceptibility to any antibiotic”.

**Q.** “(KFF)3KGSGDAAHLSLIATVAKAYFNERY [P-MtrE2, self-derived peptide, 20 amino acids of MtrE fused to (KFF)3K cell-permeating peptide and GSG linker]” was tested. Which “Reduction of the MICs … on cotreatment” value [1] did it give?
**A.** The value was “at least 2 fold”.

**Q.** Which MIC [2, 12] does the source give for `CC[C@H]1OC(=O)[C@H](C)[C@@H](O[C@H]2C[C@@](C)(OC)[C@@H](O)[C@H](C)O2)[C@H](C)[C@@H](O[C@@H]2O[C@H](C)C[C@H](N(C)C)[C@H]2O)[C@](C)(O)C[C@@H](C)C(=O)[C@H](C)[C@@H](O)[C@]1(C)O` [ERY, erythromycin, reference compound] here?
**A.** Its MIC is 16 µg/mL.

**Q.** What about the MIC [3, 12] of the same molecule?
**A.** The MIC was 2 µg/mL.

**Q.** And the MIC ([7]; antibiotic alone, microdilution per CLSI, GC broth, 20 h, triplicate wells, read-out: MIC of ERY (erythromycin))?
**A.** The MIC was 0.2 µg/mL.

**Q.** `CC[C@H]1OC(=O)[C@H](C)[C@@H](O[C@H]2C[C@@](C)(OC)[C@@H](O)[C@H](C)O2)[C@H](C)[C@@H](O[C@@H]2O[C@H](C)C[C@H](N(C)C)[C@H]2O)[C@](C)(O)C[C@@H](C)CN(C)[C@H](C)[C@@H](O)[C@]1(C)O` [AZM, azithromycin] was tested. Which MIC [6, 13] did it give?
**A.** Its MIC is 0.25 µg/mL.

**Q.** What about the “Antimicrobial resistance phenotype, AZM” value [6, 11] of the same molecule?
**A.** Its value is “S (S ≤ 0.25)”.

**Q.** What about the MIC [2, 13] of the same molecule?
**A.** The MIC was 4 µg/mL.

**Q.** And the MIC [3, 13]?
**A.** The MIC was 0.5 µg/mL.

**Q.** And the MIC ([7]; read-out: MIC of AZM (azithromycin), antibiotic alone, microdilution per CLSI, GC broth, 20 h, triplicate wells)?
**A.** Its MIC is 0.063 µg/mL.
